Data published in patent US20110294144A1, “SCREENING METHOD” (priority 2008, published 2011).

Key:
PRKX [1] = biological target: T1, PRKX (Homo sapiens, UniProt P51817); assay: In-cell infrared fluorescence imaging (Odyssey) of S214 phosphorylated tau and total tau in PRKX-transfected H4-tau cells; assay type: cell-based; parameters: using change-1F and hPRKX-1R as primers to give mutant PRKX full-length DNA; expressed in transfected cells; host or cells: H4-tau cells (human H4 neuroglial cells stably expressing human tau), transiently transfected with pPRKXkai (pTARGET vector); conditions: H-89 10-0.1 μM, 2 hr; H4-tau cells in 96 well plate, pPRKXkai; read-out: IC50 of suppression of the amount of tau S214 phosphorylation (infrared fluorescence imaging)
T1 sequence (P51817 1-358): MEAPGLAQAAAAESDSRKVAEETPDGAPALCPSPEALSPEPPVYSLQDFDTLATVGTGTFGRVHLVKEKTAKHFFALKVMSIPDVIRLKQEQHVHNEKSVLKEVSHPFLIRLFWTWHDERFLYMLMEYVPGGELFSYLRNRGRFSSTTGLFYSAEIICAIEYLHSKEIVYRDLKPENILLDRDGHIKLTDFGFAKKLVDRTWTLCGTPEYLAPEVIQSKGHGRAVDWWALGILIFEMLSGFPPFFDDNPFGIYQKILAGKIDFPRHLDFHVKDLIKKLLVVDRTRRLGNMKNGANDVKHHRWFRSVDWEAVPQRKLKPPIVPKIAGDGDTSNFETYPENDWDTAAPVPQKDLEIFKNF
Method: H4-tau cells were plated in a DMEM medium containing 10% FBS in a 96 well plate at a concentration of 1×10^4 cells/well and, the next day, pPRKXkai and pTARGET vectors were each transferred thereinto using a Fugene6 transfection reagent. One day later, H-89 was added to the medium at a concentration of 10−0.1 μM. 2 hr later, the cells were fixed with 4% para-formaldehyde (Wako Pure Chemical Industries, Ltd.), washed with phosphate buffer, and blocked with phosphate buffer containing 1.5% BSA (Sigma Aldrich) and 0.1% Triton X-100 (Wako Pure Chemical Industries, Ltd.). Thereafter, as a primary antibody, an anti-S214 phosphorylated tau antibody was used to label phosphorylated tau and an anti-tau monoclonal antibody HT-7 (Pierce Biotechnology) was used to label total tau. After washing, they were reacted with an anti-rabbit Alexa Fluor 680-labeled secondary antibody (Invitrogen) and an anti-mouse IRD800CW-labeled secondary antibody (Wako Pure Chemical Industries, Ltd.), as secondary antibodies. After washing, the amounts of S214 phosphorylated tau and total tau were detected using 2 fluorescence system infrared fluorescence Imager Odyssey (ALOKA CO., LTD.). As a result, the amount of tau S214 phosphorylation was suppressed at an IC50 value of 0.7 μM.

PRKX [2] = biological target: T1, PRKX; assay: Western blot of S214 phosphorylated tau in H4-tau cells transfected with PRKX expression plasmid; assay type: cell-based; parameters: using change-1F and hPRKX-1R as primers to give mutant PRKX full-length DNA; expressed in transfected cells; host or cells: H4-tau cells (human H4 neuroglial cells stably expressing human tau), transiently transfected with pPRKXkai (pTARGET vector); conditions: 10 μM H-89 added 2 hr before cell recovery
Method: pFB-Neo-CMV-tau plasmid obtained by inserting a DNA fragment containing a wild-type human tau gene bound at the downstream of a CMV promoter into a multicloning site of pFB-neo vector (Stratagene) was transferred into H4 neuroglial cells according to the instructions of ViraPort(R) Retroviral Gene Expression System (Stratagene), and a cell confirmed to show expression of tau was used as a H4-tau cell. […] After transcription to a PVDF membrane, Western blot was performed using, as a primary antibody, an anti-S214 phosphorylated tau antibody (BioSource) for the detection of S214 phosphorylated tau, an Ab-3 antibody (Lab Vision) for the detection of total tau, and […], and according to the instructions of ECL Advance Western Blotting Detection Kit (Amarsham Bioscience), and each protein was detected by LAS-1000 plus lumino image analyzer (Fujifilm). […] The tranfected cell was dissolved in a cell lysis buffer (BioSource), the amount of S214 phosphorylated tau was measured using a human pS214 tau ELISA kit (BioSource), the amount of total tau was measured using a human total tau ELISA kit (BioSource), each according to the instructions, and the amount of phosphorylated tau in the total tau was examined. […]

[3] = test system: mouse primary nerve cells infected with PRKX overexpression lentivirus; assay: Neurite elongation (MAP2 staining) in mouse primary nerve cells infected with PRKX overexpression lentivirus; assay type: cell-based; conditions: DIV14 mouse primary nerve cells, PRKX lentivirus MOI=2, forskolin 10 μM 2 days
Method: DIV14 mouse primary nerve cells were plated in a 48 well plate at a concentration of 3.5×10^3 cells/well and infected with PRKX or D172A overexpression lentivirus at MOI=2. Four days after the infection, forskolin was added at a concentration of 10 μM, and the cells were cultured for 2 days. The cells were fixed, nerve cell was labeled with anti-MAP2 monoclonal antibody as a primary antibody, anti-MAP2 antibody was stained with anti-mouse Alexa Fluor 488-labeled secondary antibody, and they were photographed by Discovery-1. The neurite elongation was measured by a metamorph software based on the images taken by Discovery-1. As a result, the decrease of the neurite elongation found with the PRKX overexpression lentivirus was suppressed by 76% by H-89.

PRKX [4] = biological target: T1, PRKX; assay: pS214 tau / total tau ELISA in PRKX-transfected H4-tau cells; assay type: cell-based; parameters: using change-1F and hPRKX-1R as primers to give mutant PRKX full-length DNA; expressed in transfected cells; host or cells: H4-tau cells (human H4 neuroglial cells stably expressing human tau), transiently transfected with pPRKXkai (pTARGET vector); conditions: H-89 10-0.1 μM, 2 hr, pPRKXkai, read-out: IC50 of suppression of the amount of tau S214 phosphorylation (ELISA, phosphorylated tau in total tau)
Method: pPRKXkai and pTARGET vectors were each transferred into H4-tau cells cultured overnight in a DMEM medium containing 10% FBS, using a Fugene6 transfection reagent. One day later, H-89 was added at a concentration of 10-0.1 μM. 2 hr later, the cells were dissolved in a cell lysis buffer, the amount of S214 phosphorylated tau was measured using a human pS214 tau ELISA kit, the amount of the total tau was measured using a human total tau ELISA kit, and the amount of phosphorylated tau in the total tau was examined. As a result, the amount of tau S214 phosphorylation was suppressed at an IC50 value of 0.7 μM.

[5] = test system: H4 cells infected with PRKX overexpression lentivirus; assay: Cell death (DAPI positive cell count) in H4 cells infected with PRKX overexpression lentivirus; assay type: cell-based, human; conditions: PRKX lentivirus MOI=1
Method: H4 cells were plated in a 48 well plate at a concentration of 3.5×10^3 cells/well and, the next day, infected with PRKX or lacZ overexpression lentivirus at MOI=1. Two days later, H-89 was added at 3 or 10 μM. The next day, the cells were fixed, and the nucleus was stained with DAPI. DAPI positive cells were photographed by Discovery-1, and the number of DAPI positive cells was counted from the images by a Metamorph software. […] The cell death was suppressed by 29% or 46% by the addition of 3 μM or 10 μM H-89.

[6] = test system: mouse primary nerve cells infected with PRKX overexpression lentivirus; assay: Immunostaining of S214 phosphorylated tau in mouse primary nerve cells infected with PRKX overexpression lentivirus; assay type: cell-based; conditions: DIV12 mouse primary nerve cells, PRKX lentivirus MOI=2
Description: DIV12 mouse primary nerve cells plated in a 48 well plate at a concentration of 3.5×10^3 cells/well were infected with PRKX overexpression lentiviruses at MOI=2. Two days later, the cells were fixed with 4% para-formaldehyde, washed with phosphate buffer, and blocked with a phosphate buffer containing 1.5% BSA and 0.1% Triton X-100. Thereafter, as a primary antibody, an anti-S214 phosphorylated tau antibody was used to label phosphorylated tau, and an anti-MAP2 monoclonal antibody (Chemicon International) was used to label nerve cells. After washing, anti-S214 phosphorylated tau antibody was stained with anti-rabbit alexafluoro594-labeled secondary antibody, and anti-MAP2 antibody was stained with anti-mouse alexafluoro488-labeled secondary antibody (Invitrogen), and they were photographed using Discovery-1. As a result, the amount of tau S214 phosphorylation decreased due to H-89.

PRKX [7] = biological target: T1, PRKX; assay: Cell-free tau S214 phosphorylation by recombinant PRKX protein, Western blot; assay type: biochemical; parameters: purchased Invitrogen; conditions: 30° C., 60 min
Method: To a reaction mixture (40 mM Tris-HCl (pH 7.5), 20 mM MgCl2, 0.1 mg/ml BSA, 25 μl) containing recombinant PRKX protein (Invitrogen, 4 μg/ml) and recombinant tau protein (Wako Pure Chemical Industries, Ltd., 40 μg/ml) was added H-89 solution (40 mM Tris-HCl (pH 7.5), 0.1% DMSO, 20 mM MgCl2, 0.1 mg/ml BSA, 5 μl) to a concentration during reaction of 1 or 0.1 μM. As a control, 40 mM Tris-HCl (pH 7.5), 0.1% DMSO, 20 mM MgCl2, 0.1 mg/ml BSA solution (5 μl) were added. 25 μM ATP solution (40 mM Tris-HCl (pH 7.5), 20 mM MgCl2, 0.1 mg/ml BSA) was added by 20 μl to start the reaction and the mixture was left standing at 30° C. for 60 min. An SDS sample buffer was added to quench the reaction, the protein was separated using NuPAGE 4-12% Bis-Tris gel and transferred to a PVDF membrane. Western blot was performed using an anti-S214 phosphorylated tau antibody as a primary antibody and ECL Advance Western Blotting Detection Kit, and S214 phosphorylated tau was quantified by LAS-1000 plus lumino image analyzer. […] By the addition of H-89 at a final concentration of 1 and 0.1 μM, the tau S214 phosphorylation reaction decreased to 5% and 52%, respectively, of that without the addition.

[8] = test system: H4-tau cells infected with PRKX overexpression lentivirus; assay: Thioflavin S positive cell count (tau aggregation) in H4-tau cells infected with PRKX overexpression lentivirus; assay type: cell-based, human; conditions: 3 μM H-89, added three days after infection; PRKX lentivirus MOI=2.5
Method: H4-tau cells were plated in a 24 well plate at a concentration of 1×10^5 cells/well and, the next day, infected with PRKX or lacZ overexpression lentivirus at MOI=1 or 2.5. Three days later, H-89 was added to a concentration of 3 μM. The next day, the cells fixed with 4% para-formaldehyde were washed with phosphate buffer, and blocked with phosphate buffer containing 1.5% BSA and 0.1% Triton X-100. Thereafter, the cells were stained by using S214 phosphorylated tau, and anti-S214 phosphorylated tau or total tau antibody as a primary antibody and anti-rabbit Alexa Fluor 594-labeled secondary antibody as a secondary antibody. Thereafter, the cells were left standing in 0.005% aqueous thioflavin S (Sigma Ltd.) solution for 5 min, and washed twice with 70% ethanol and once with water. Furthermore, the nucleus was stained with DAPI. The stained cells were photographed by Discovery-1, and the number of DAPI positive cells and the number of thioflavin S positive cells were counted by metamorph software (Molecular Device) based on the images taken by Discovery-1. In the PRKX infected well, the number of cells stained with thioflavin S having a β sheet structure increased 2-fold at MOI=1 and 5.2-fold at MOI=2.5 as compared to lacZ infected well. By containing with a tau specific antibody, almost all thioflavin S positive images were contained with tau and S214 phosphorylated tau. […]

PRKX [9] = biological target: T1, PRKX; conditions: non-patent document 3; cited from earlier work

SMILES: O=S(=O)(NCCNC/C=C/c1ccc(Br)cc1)c1cccc2cnccc12 [H-89]
- IC50 (PRKX [1]): 0.7 µM
- enhanced S214 phosphorylation of tau (Western blot) (PRKX [2]): enhanced phosphorylation was not found
- suppression of the decrease of the neurite elongation [3]: 76%
- IC50 (PRKX [4]): 0.7 µM
- suppression of cell death ([5]; 3 μM H-89): 29%
- suppression of cell death ([5]; 10 μM H-89): 46%
- amount of tau S214 phosphorylation [6]: decreased
- tau S214 phosphorylation reaction, % of that without the addition (PRKX [7]; H-89 final concentration 0.1 μM): 52%
- tau S214 phosphorylation reaction, % of that without the addition (PRKX [7]; H-89 final concentration 1 μM): 5%
- suppression of the increase of thioflavin S stained cells [8]: 75%
- inhibition of PRKX (PRKX [9]): inhibit PRKX
